{
  "source": "patent US20230095701A1",
  "about": "“Use of Albiflorin in Treatment of Coronavirus Pneumonia” (priority 2020, published 2023)",
  "key": {"IDO1": {"system": "IDO1", "assay": "IDO1 in hippocampus of chronic stress rats, Western Blot", "parameters": "secretion of IDO1 in the hippocampus (in words): dose or concentration left out as unconfirmed", "settings": "7 days; for IDO1: hippocampus of chronic stress rats, blank control 1.0, model 1.0"}, "[1]": {"system": "intestinal flora metabolism", "assay": "Targeted metabolomics (LC-MS/MS, VIP analysis) of feces of chronic stress (CUMS) depression model rats", "settings": "7 mg/kg/d intragastric, 7 days, compared with the depression group"}, "cPLA2": {"system": "cPLA2", "assay": "cPLA2 in hippocampus of chronic unpredictable mild stress (CUMS) rats", "settings": "7 days, 7 mg/kg, FIG. 10"}, "erythropoietin EPO": {"system": "erythropoietin EPO", "assay": "Hypoxia tolerance experiment", "format": "in vivo", "settings": "hypoxic state of the body"}, "SphK1": {"system": "SphK1", "assay": "SphK1 in hippocampus of chronic stress rats, Western Blot", "parameters": "SphK1 in the hippocampus (in words): dose or concentration left out as unconfirmed", "settings": "for SphK1: hippocampus of chronic stress rats, blank control 1.0, model 1.1"}, "IL-6": {"system": "IL-6", "assay": "IL-6 content in plasma of acute stress model mice (ELISA)", "format": "in vivo, ICR mice"}, "SphK2": {"system": "SphK2", "assay": "SphK2 in hippocampus of chronic stress rats, Western Blot", "parameters": "SphK2 in the hippocampus (in words): dose or concentration left out as unconfirmed", "settings": "for SphK2: hippocampus of chronic stress rats, blank control 1.0, model 1.8"}, "intestinal flora": {"system": "intestinal flora", "assay": "Intestinal flora function and structure in CUMS rats (metabolomics, 16sDNA high-throughput metagenomic sequencing)", "settings": "7 days"}, "[2]": {"settings": "compared with the depression group, VIP analysis, FIG. 15"}},
  "data": [
    {"smiles": "C[C@]12C[C@@H](O)[C@@H]3C[C@@]1(O[C@@H]1O[C@H](CO)[C@@H](O)[C@H](O)[C@H]1O)[C@@]3(COC(=O)c1ccccc1)C(=O)O2", "note": "[Albiflorin]", "values": [
      {"measurement": "secretion of IDO1 in the hippocampus (in words)", "setting": "IDO1; CUMS rats, P<0.01", "value": "significantly inhibited"},
      {"measurement": "IDO1", "setting": "IDO1; 7 mg/kg", "value": "0.8 ± 0.007"},
      {"measurement": "IDO1", "setting": "IDO1; 14 mg/kg", "value": "0.7 ± 0.007"},
      {"measurement": "overall metabolism of intestinal flora", "setting": "[1]; CUMS rats, VIP analysis, FIG. 6", "value": "significantly improved"},
      {"measurement": "amino acid and vitamin content", "setting": "[1]; feces of CUMS rats", "value": "increase"},
      {"measurement": "bile acid content", "setting": "[1]; feces of CUMS rats", "value": "increase"},
      {"measurement": "increase of cPLA2 in the hippocampus", "setting": "cPLA2", "value": "inhibit the increase of cPLA2"},
      {"measurement": "level of erythropoietin EPO", "setting": "erythropoietin EPO", "value": "increase"},
      {"measurement": "SphK1 in the hippocampus (in words)", "setting": "SphK1; CUMS rats, 7 days, P<0.01", "value": "significantly decreased"},
      {"measurement": "SphK1", "setting": "SphK1; 3.5 mg/kg, 7 days", "value": "1.2 ± 0.009"},
      {"measurement": "SphK1", "setting": "SphK1; 7 mg/kg, 7 days", "value": "0.7 ± 0.004"},
      {"measurement": "SphK1", "setting": "SphK1; 14 mg/kg, 7 days", "value": "0.5 ± 0.001"},
      {"measurement": "secretion of IL-6", "setting": "IL-6; 8 mg/kg intragastric, P<0.01, FIG. 8", "value": "most significant inhibitory effect"},
      {"measurement": "secretion of IL-6", "setting": "IL-6; low dose range, intragastric, 2 days, FIG. 8", "value": "certain inhibitory effect"},
      {"measurement": "secretion of IL-6", "setting": "IL-6; with the increase of the administration dose (up to 128 mg/kg), FIG. 8", "value": "secretion of IL-6 is promoted obviously"},
      {"measurement": "SphK2 in the hippocampus (in words)", "setting": "SphK2; CUMS rats, 7 days, P<0.01", "value": "significantly decreased"},
      {"measurement": "SphK2", "setting": "SphK2; 3.5 mg/kg, 7 days", "value": "2.2 ± 0.016"},
      {"measurement": "SphK2", "setting": "SphK2; 7 mg/kg, 7 days", "value": "1.6 ± 0.010"},
      {"measurement": "SphK2", "setting": "SphK2; 14 mg/kg, 7 days", "value": "2.1 ± 0.015"},
      {"measurement": "flora structure compared with the blank control group (cluster analysis)", "setting": "intestinal flora; 7 mg/kg/d, P>0.05, FIG. 14", "value": "without any statistical difference"},
      {"measurement": "content of beneficial bacteria Firmicutes, especially lactic acid bacteria", "setting": "intestinal flora; 7 mg/kg/d, compared with the stress rat model group, FIG. 14", "value": "significant increase"},
      {"measurement": "content of bile acids and content of amino acids and vitamins", "setting": "intestinal flora; [2]", "value": "increase"},
      {"measurement": "overall metabolism of intestinal flora", "setting": "intestinal flora; [2]", "value": "significantly improved"}
    ]},
    {"smiles": "C[C@@]12C[C@@]3(O)O[C@@H](O1)[C@]1(COC(=O)c4ccccc4)[C@H]3C[C@@]12O[C@@H]1O[C@H](CO)[C@@H](O)[C@H](O)[C@H]1O", "note": "[Paeoniflorin, reference compound]", "values": [
      {"measurement": "secretion of IL-6 in the blood", "setting": "IL-6; 4 mg/kg and 8 mg/kg intragastric, P<0.05, FIG. 7", "value": "most significant inhibitory effect"},
      {"measurement": "secretion of IL-6 in the blood", "setting": "IL-6; dose range 4, 8, 16, 32, 64 and 128 mg/kg intragastric, 2 days, FIG. 7", "value": "certain inhibitory effect"}
    ]},
    {"smiles": "CNCCC(Oc1ccc(C(F)(F)F)cc1)c1ccccc1", "note": "(stereo not drawn) [Fluoxetine, fluoxetine, reference compound]", "values": [
      {"measurement": "SphK1", "setting": "SphK1; fluoxetine group", "value": "1.5 ± 0.009"},
      {"measurement": "SphK2", "setting": "SphK2; fluoxetine group", "value": "2.1 ± 0.016"}
    ]}
  ]
}
